Key:
Format in all cases: cell-based
[1] = molecular target: T1, 5α-reductase in HEK293-5αR2 cells (Homo sapiens, UniProt P31213); assay: Inhibition of 5α-reductase activity ([14C]testosterone to [14C]dihydrotestosterone conversion); settings: 2 hours incubation at 37° C.; for Conversion (%): testosterone to DHT
T1 construct: 3xFLAG; expressed in transfected cells; host or cells: HEK293 (Human Embryonic Kidney 293)
T1 sequence (P31213 1-254): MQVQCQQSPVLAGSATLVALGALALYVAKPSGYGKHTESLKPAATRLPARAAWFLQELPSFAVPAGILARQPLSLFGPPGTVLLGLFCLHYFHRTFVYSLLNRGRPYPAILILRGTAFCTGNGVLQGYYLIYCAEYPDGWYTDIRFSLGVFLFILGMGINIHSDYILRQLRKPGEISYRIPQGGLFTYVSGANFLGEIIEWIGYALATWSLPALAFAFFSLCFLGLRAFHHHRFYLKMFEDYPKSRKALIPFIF
Protocol: In order to examine the effect of inhibiting 5α-reductase activity, the ratio of [^14C]testosterone-to-[^14C]dihydrotestosteron conversion in Human Embryonic Kidney 293(HEK293)-5αR2 cells was measured. HEK293 cells transfected with plasmid p3×FLAG-CMV™-5αR2 were added to a 24-well plate at a density of 2.5×10^5cells/well and cultured (Park et al., 2003, J. Dermatological Science. Vol. 31, pp. 91-98). The next day, the medium was replaced with a fresh medium containing an enzyme substrate and an inhibitor. As the substrate of the medium, 0.05 μCi [^14C]testosterone (Amersham Pharmacia Biotech, UK) was used.
In order to measure the degree of inhibition of 5α-reductase activity, thioredoxin was added to the cells which were then incubated in a 5% CO2 incubator at 37° C. for 2 hours. At the same time, a medium containing no thioredoxin was used as a negative, and a medium containing finasteride was used as a positive control. Next, the culture medium was collected, and steroid was extracted with 800 μl of ethyl acetate. The upper organic solvent layer was separated and dried, and the remaining material was dissolved in 50 μl of ethyl acetate and developed on silica plastic sheet kieselgel 60 F254 using ethyl acetate-hexane (1:1) as a developing solvent.
The plastic sample was dried in air, and the amount of isotopes was measured using a Vas system. Specifically, the dried plastic sheet together with an X-ray film was placed in a Vas cassette, and after 1 week, the amounts of the testosterone and dihydrotestosterone (DHT) isotopes were measured, and then the percent conversion and the percent inhibition were measured using the following equations 1 and 2, respectively.
Conversion (%)=radioactivity in the DHT region/total radioactivity×100
Inhibition (%)=(conversion of control−conversion of sample)/conversion of control×100

[2] = test system: fibroblasts; assay: Stimulation of collagen biosynthesis (procollagen type (I) ELISA); settings: 24 hours; relative to control = 100%; TGF-beta 10 ng/ml
Protocol: The effect of thioredoxin of the present invention on the stimulation of collagen biosynthesis was measured in comparison with TGF-beta.
First, fibroblasts were seeded into a 24-well plate at a density of 10^5cells/well and cultured in serum-free DMEM medium for 24 hours to a confluence of about 90%. Then, the cells were treated with each of a solution of thioredoxin of the present invention and 10 ng/ml of TGF-beta dissolved in serum-free medium and incubated in a CO2 incubator for 24 hours. The supernatants of the cell cultures were collected and the amount of procollagen therein was measured using a procollagen type (I) ELISA kit. The values of collagen synthesis (%) in Table 8 are expressed as percentages relative to the control taken as 100%.

[3] = test system: human keratinocytes; assay: Stimulation of keratinocyte differentiation (cornified envelope protein, absorbance 340 nm); settings: 5 days culture; thioredoxin 5 ppm; low-calcium negative control = 100
Protocol: In order to examine the effect of thioredoxin on the stimulation of differentiation of keratinocytes, the amount of cornified envelope (CE) protein produced during the differentiation of keratinocytes was measured by absorbance in the following manner.
Specifically, human keratinocytes, isolated from the […] of newborns and primarily cultured, were placed in a culture flask and attached to the bottom. Then, the cells were cultured with a medium containing 5 ppm of thioredoxin for 5 days until the cells reached to a confluence of about 70-80%. At the same time, a low calcium (0.03 mM)-treated group and a high calcium (1.2 mM)-treated group were used as a negative control group and a positive control group, respectively. Then, the cultured cells were harvested and washed with PBS (phosphate buffered saline). Then, the cells were sonicated in 1 ml of 10 mM Tris-HCl (pH 7.4) containing 2% SDS (sodium dodecyl sulfate) and 20 mM DTT (dithiothreitol), boiled and centrifuged. The precipitate was suspended in 1 ml of PBS, and the absorbance at 340 nm was measured. Separately, a portion of the solution following the sonication was taken, and the protein content thereof was measured as a reference for evaluating the degree of differentiation of the cells.

| Molecule | Conversion (%) [1] [%] | Collagen synthesis (%) [2] [%] | Degree (%) of differentiation of keratinocytes [3] [%] | Inhibition (%) ([1]; relative to conversion of control) |
| --- | --- | --- | --- | --- |
| CC(C)(C)NC(=O)[C@H]1CC[C@H]2[C@@H]3CC[C@H]4NC(=O)C=C[C@]4(C)[C@H]3CC[C@]12C [Positive control, finasteride, reference compound] | 27.6 |  |  |  |
| TGF-β [reference compound] |  | 183.5 |  |  |
| Thioredoxin | 15.9 | 196.2 | 295 | 60.8 |
